Measured values from paper PMC12332667, “Role of Structural Modifications in Peptidomimetic Compounds as Potential Antimicrobial Agents against Staphylococcus aureus and Streptococcus pyogenes: Balancing Bioavailability, Safety, and Antimicrobial Activity” (ACS Omega, 2025).
In brackets after ≈: the same amount, converted by molar mass. Several values for one entry are separate records, joined by “and”; a condition that tells them apart may be missing. Equal entries are not always repeated.

Tests used:
[1] = system: human dermal fibroblast cell line (46BR.1N); assay: XTT cell proliferation assay, fibroblasts; format: cell-based; conditions: XTT
Protocol: (§1) In our study, we used two distinct cell types: immortalized human HaCaT keratinocytes (DKFZ, Heidelberg, Germany) and a human dermal fibroblast cell line (46BR.1N). […] Cultures were maintained in a humidified atmosphere with 5% CO2 at 37 °C in 25 cm^2 culture flasks with the medium replenished every 2 days. The condition of the cells was monitored using optical microscopy. […] After 24 h of incubation, the medium was replaced with serum-free HG-DMEM containing appropriate concentrations of peptidomimetics. All solutions used in the experiments were prepared with double-distilled water or with the addition of ethanol under sterile conditions to ensure compatibility with the conditions of the bacteriological assay. For 72 h of incubation, half of the medium was replaced with fresh medium after 48 h, and cells were stimulated with peptides for a second time. The XTT cell proliferation assay was then performed according to the manufacturer’s instructions (Roche, Switzerland). Cells were treated with the peptides for either 48 or 72 h, followed by the addition of XTT reagent, and the plates were then incubated at 37 °C in a 5% CO2 environment for 4 h. Plate readings were taken using a standard plate reader at a wavelength of 490 nm (OD = 490 nm). […] Statistical significance was determined with a Mann–Whitney U test with statistical significance p ≤ 0.05. Analysis was performed with Statistica software, and graphs were prepared in GraphPad Prism.

S. aureus ATCC 43300 = assay: MIC/MBC broth microdilution, S. aureus; format: cell-based, Staphylococcus aureus; conditions: for MBC / MIC: S. aureus
P. vulgaris ATCC 6896 = assay: MIC/MBC broth microdilution, P. vulgaris; format: cell-based, Proteus vulgaris
Protocol: (§2) S. aureus (ATCC 29213),S. pyogenes (ATCC 19615),Streptococcus agalactiae (ATCC 27956),Escherichia coli (ATCC 25922),Proteus vulgaris (ATCC 6896),K. pneumoniae (ATCC 700603) andP. aeruginosa (ATCC 10145) reference strains, as well asStaphylococcus cohnii, Enterococcus faecalis, Staphylococcus schleiferi, Staphylococcus intermedius and Streptococcus mutans clinical isolates, were used to test the antibacterial activity of the peptidomimetics. Bacteria were aerobically cultured for 18 h at 37 °C in plates with sterilized brain heart infusion (BHI) broth (Sigma-Aldrich, USA) media mixed with bacteriological agar (Sigma-Aldrich, USA) using the streak plate method. After 18 h, BHI broth was inoculated to 0.5 on the McFarland scale and diluted to approximately 10^5 CFU/mL. To achieve a final stock concentration of 1024 μg/mL, the peptidomimetics were dissolved in sterile water, and 5–10% of absolute ethanol or dimethyl sulfoxide (DMSO) was added. The antibacterial activities were determined by using the standard broth microdilution method of the National Committee for Clinical Laboratory Standards. The process involved adding serially diluted peptidomimetics to consecutive wells of a 96-well microtiter plate (Brand, Germany) holding media with microorganisms. The inoculated plates treated with peptides were then placed in an incubator at 37 °C for 18 h. The MIC value was determined as the lowest concentration of peptidomimetic at which there was no obvious growth (equal or more than 90% of the untreated sample). […] The lowest concentration yielding growth in no more than 3 colonies, corresponding to at least a 99.9% kill rate, was taken as MBC. Each biological replicate included control wells with the addition of water, DMSO, and ethanol as respective solvent controls. All experiments were conducted with consistent adherence to growth and sterility controls and were performed at least in technical triplicate with three biological repeats.

S. schleiferi c.i. = assay: MIC/MBC broth microdilution, S. schleiferi; format: cell-based, Staphylococcus schleiferi
Protocol: as §2

[2] = Hydrophobicity by reverse-phase chromatography; format: physicochemical; conditions: acetonitrile content in the mobile phase at the retention time
Description: Reverse-phase chromatography was employed to assess the hydrophobicity characteristics of the peptidomimetics. Hydrophobicity was quantified by determining the acetonitrile content in the mobile phase at the retention time of a peptidyl derivative (Table S2). The least hydrophobic compound (40% acetonitrile) was A-198, which aligns with the calculations of hydrophobicity by SwissADME and pkCSM (Table ). Next in the hydrophobicity sequence were A-197, A-220, A-219, A-174, and A-221, eluting with 42.5-43.9% of acetonitrile. Then there were followed by […], and A-179, with the acetonitrile percentage of 44.8-49.8. The compounds A-176, A-20, A-152, A-134, and A-210 needed over 50% of acetonitrile to be eluted from the column.

[3] = system: immortalized human HaCaT keratinocytes; assay: XTT cell proliferation assay, keratinocytes; format: cell-based; conditions: XTT
Protocol: as §1

fibroblasts (46BR.1N) = assay: LDH cytotoxicity test, fibroblasts; format: cell-based; conditions: 48 h, 50-150 μg/mL
Protocol: In our study, we used two distinct cell types: immortalized human HaCaT keratinocytes (DKFZ, Heidelberg, Germany) and a human dermal fibroblast cell line (46BR.1N). […] Cultures were maintained in a humidified atmosphere with 5% CO2 at 37 °C in 25 cm^2 culture flasks with the medium replenished every 2 days. The condition of the cells was monitored using optical microscopy.
Cell death in immortalized human keratinocytes (HaCaT) and fibroblasts (46BR.1N) was measured by quantifying the lactate dehydrogenase (LDH) activity using a commercial kit (Roche, Switzerland). Cells were seeded in 96-well plates at a density of 5000 cells per well in DMEM high glucose medium supplemented with 10% FBS. After 24 h of incubation, the medium was replaced with serum-free medium containing various concentrations of peptidomimetics (50, 100, and 150 μg/mL). After 48 h, supernatants were collected for LDH analysis. Plate readings were taken spectrophotometrically using a 450 nm wavelength. Cell death measurements were normalized to an untreated control (0%), with 1% Triton X-100 detergent used as a positive control to induce maximum LDH release, indicating maximal cytotoxicity. Statistical significance was determined with a Mann–Whitney U test with a statistical significance p ≤ 0.05. Analysis was performed with Statistica software (Krakow, Poland) and graphs were prepared in GraphPad Prism (Boston, USA).

S. intemrdius c.i. = assay: MIC/MBC broth microdilution, S. intermedius; format: cell-based, Staphylococcus intermedius
Protocol: as §2

S. pyogenes ATCC 19615 = assay: MIC/MBC broth microdilution, S. pyogenes; format: cell-based, Streptococcus pyogenes; conditions: S. pyogenes
Protocol: as §2

S. mutans c.i. = assay: MIC/MBC broth microdilution, S. mutans; format: cell-based, Streptococcus mutans
Protocol: as §2

P. aeruginosa ATCC 10145 = assay: MIC/MBC broth microdilution, P. aeruginosa; format: cell-based
Protocol: as §2

[4] = system: K. pneumoniae ATCC 700603; assay: MIC/MBC broth microdilution, K. pneumoniae; format: cell-based
Protocol: as §2

E. coli ATCC 25922 = assay: MIC/MBC broth microdilution, E. coli; format: cell-based, Escherichia coli
Protocol: as §2

E. faecalis c.i. = assay: MIC/MBC broth microdilution, E. faecalis; format: cell-based, Enterococcus faecalis
Protocol: as §2

**Q.** For CC(C)[C@@H](CNC(=O)C(=Cc1ccccc1)c1ccccc1)NC(=O)[C@H](CCCNC(=N)N)NC(=O)[C@H](CCCCN)NC(=O)OCc1ccccc1 [Compound A-191], which “proliferation relative to control at 100 and 150 μg/mL” value [1] is on record?
**A.** ≤ 20%

**Q.** What about the “effect on proliferation, in words” value ([1]; 48 and 72 h, 0.01–150 μg/mL) of the same compound?
**A.** negative impact

**Q.** And the MBC (S. aureus ATCC 43300; H2O)?
**A.** 32 µg/mL (≈ 44 µM)

**Q.** And the MIC (S. aureus ATCC 43300; H2O)?
**A.** 32 µg/mL (≈ 44 µM)

**Q.** And the MBC (S. aureus ATCC 43300; water additive DMSO)?
**A.** 32 µg/mL (≈ 44 µM)

**Q.** What about the MIC (S. aureus ATCC 43300; water additive DMSO) of the same compound?
**A.** 16 µg/mL (≈ 22 µM)

**Q.** What about the MBC (S. aureus ATCC 43300; water additive EtOH) of the same compound?
**A.** 32 µg/mL (≈ 44 µM)

**Q.** And the MIC (S. aureus ATCC 43300; water additive EtOH)?
**A.** 16 µg/mL (≈ 22 µM)

**Q.** What about the “MIC value for S. aureus” value (S. aureus ATCC 43300; additive not stated) of the same compound?
**A.** 16 µg/mL

**Q.** What about the MBC (P. vulgaris ATCC 6896; H2O) of the same compound?
**A.** > 512 µg/mL

**Q.** And the MIC (P. vulgaris ATCC 6896; H2O)?
**A.** 512 µg/mL (≈ 704 µM)

**Q.** And the MIC (P. vulgaris ATCC 6896; water additive DMSO)?
**A.** > 512 µg/mL

**Q.** And the MBC (P. vulgaris ATCC 6896; water additive EtOH)?
**A.** > 512 µg/mL

**Q.** What about the MIC (P. vulgaris ATCC 6896; water additive EtOH) of the same compound?
**A.** 512 µg/mL (≈ 704 µM)

**Q.** What about the MBC (S. schleiferi c.i.; H2O) of the same compound?
**A.** 32 µg/mL (≈ 44 µM)

**Q.** What about the MIC (S. schleiferi c.i.; H2O) of the same compound?
**A.** 8 µg/mL (≈ 11 µM)

**Q.** And the MBC (S. schleiferi c.i.; water additive DMSO)?
**A.** 32 µg/mL (≈ 44 µM)

**Q.** And the MIC (S. schleiferi c.i.; water additive DMSO)?
**A.** 8 µg/mL (≈ 11 µM)

**Q.** What about the MBC (S. schleiferi c.i.; water additive EtOH) of the same compound?
**A.** 32 µg/mL (≈ 44 µM)

**Q.** What about the MIC (S. schleiferi c.i.; water additive EtOH) of the same compound?
**A.** 8 µg/mL (≈ 11 µM)

**Q.** What about the “% AcCN (acetonitrile required for elution from the column)” value [2] of the same compound?
**A.** 44.8% and 44.8–49.8%

**Q.** What about the “proliferation relative to control at 100 and 150 μg/mL” value [3] of the same compound?
**A.** ≤ 20%

**Q.** What about the “effect on proliferation, in words” value ([3]; 48 and 72 h, 0.01–150 μg/mL) of the same compound?
**A.** negative impact

**Q.** And the “cytotoxicity (LDH), in words” value (fibroblasts (46BR.1N))?
**A.** high cytotoxic effect only to fibroblasts at the highest tested concentration

**Q.** What about the MIC (S. intemrdius c.i.; H2O) of the same compound?
**A.** 32 µg/mL (≈ 44 µM)

**Q.** And the MIC (S. intemrdius c.i.; water additive DMSO)?
**A.** 32 µg/mL (≈ 44 µM)

**Q.** And the MIC (S. intemrdius c.i.; water additive EtOH)?
**A.** 32 µg/mL (≈ 44 µM)

**Q.** What about the MBC (S. pyogenes ATCC 19615; H2O) of the same compound?
**A.** 4 µg/mL (≈ 5.5 µM)

**Q.** And the MIC (S. pyogenes ATCC 19615; H2O)?
**A.** 4 µg/mL (≈ 5.5 µM)

**Q.** What about the MBC (S. pyogenes ATCC 19615; water additive DMSO) of the same compound?
**A.** 8 µg/mL (≈ 11 µM)

**Q.** What about the MIC (S. pyogenes ATCC 19615; water additive DMSO) of the same compound?
**A.** 4 µg/mL (≈ 5.5 µM)

**Q.** What about the MBC (S. pyogenes ATCC 19615; water additive EtOH) of the same compound?
**A.** 8 µg/mL (≈ 11 µM)

**Q.** What about the MIC (S. pyogenes ATCC 19615; water additive EtOH) of the same compound?
**A.** 4 µg/mL (≈ 5.5 µM)

**Q.** What about the MIC (S. mutans c.i.; water additive DMSO) of the same compound?
**A.** 32 µg/mL (≈ 44 µM)

**Q.** What about the MIC (S. mutans c.i.; water additive EtOH) of the same compound?
**A.** 32 µg/mL (≈ 44 µM)

**Q.** And the MBC (P. aeruginosa ATCC 10145; H2O)?
**A.** 256 µg/mL (≈ 352 µM)

**Q.** And the MBC (P. aeruginosa ATCC 10145; water additive DMSO)?
**A.** 256 µg/mL (≈ 352 µM)

**Q.** What about the MIC ([4]; H2O) of the same compound?
**A.** > 512 µg/mL

**Q.** What about the MIC ([4]; water additive DMSO) of the same compound?
**A.** > 512 µg/mL

**Q.** And the MBC ([4]; water additive EtOH)?
**A.** > 512 µg/mL

**Q.** And the MIC ([4]; water additive EtOH)?
**A.** 512 µg/mL (≈ 704 µM)

**Q.** And the MBC (E. coli ATCC 25922; H2O)?
**A.** > 512 µg/mL

**Q.** And the MIC (E. coli ATCC 25922; H2O)?
**A.** 512 µg/mL (≈ 704 µM)

**Q.** And the MBC (E. coli ATCC 25922; water additive DMSO)?
**A.** > 512 µg/mL

**Q.** And the MIC (E. coli ATCC 25922; water additive DMSO)?
**A.** 512 µg/mL (≈ 704 µM)

**Q.** What about the MBC (E. coli ATCC 25922; water additive EtOH) of the same compound?
**A.** > 512 µg/mL

**Q.** And the MIC (E. coli ATCC 25922; water additive EtOH)?
**A.** 512 µg/mL (≈ 704 µM)

**Q.** What about the MBC (E. faecalis c.i.; H2O) of the same compound?
**A.** > 512 µg/mL

**Q.** What about the MIC (E. faecalis c.i.; H2O) of the same compound?
**A.** 512 µg/mL (≈ 704 µM)

**Q.** And the MBC (E. faecalis c.i.; water additive DMSO)?
**A.** > 512 µg/mL

**Q.** And the MIC (E. faecalis c.i.; water additive DMSO)?
**A.** 512 µg/mL (≈ 704 µM)

**Q.** And the MIC (E. faecalis c.i.; water additive EtOH)?
**A.** > 512 µg/mL
